Columns and labels:
[1] = target: T1, recombinant human monoamine oxidase B (hMAO-B) (Homo sapiens, UniProt P27338); assay: hMAO-B enzyme kinetics (Lineweaver-Burk, Dixon, secondary plots); type: biochemical; settings: for Ki: hMAO-B, from secondary plots; for Inhibition Type, hMAO-B: Lineweaver-Burk and Dixon plots
T1 sequence (P27338 1-520): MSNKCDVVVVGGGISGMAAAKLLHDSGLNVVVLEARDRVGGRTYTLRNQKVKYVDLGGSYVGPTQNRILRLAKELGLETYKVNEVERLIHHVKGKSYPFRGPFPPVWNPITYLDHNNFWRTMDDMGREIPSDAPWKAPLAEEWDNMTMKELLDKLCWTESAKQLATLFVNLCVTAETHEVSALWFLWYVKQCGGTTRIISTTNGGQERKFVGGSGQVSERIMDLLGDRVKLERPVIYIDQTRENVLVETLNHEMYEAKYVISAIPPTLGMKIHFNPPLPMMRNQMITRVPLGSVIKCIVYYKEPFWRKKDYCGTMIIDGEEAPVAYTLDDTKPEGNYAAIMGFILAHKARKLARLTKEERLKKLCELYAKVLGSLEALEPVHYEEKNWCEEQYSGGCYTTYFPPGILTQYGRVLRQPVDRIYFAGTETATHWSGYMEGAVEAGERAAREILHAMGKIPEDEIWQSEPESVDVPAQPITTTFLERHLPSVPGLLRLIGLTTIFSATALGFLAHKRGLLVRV

[2] = target: T2, human M4 muscarinic acetylcholine receptor (hM4R) (Homo sapiens, UniProt P08173); assay: M4 (h) functional GPCR assay, agonist effect, cAMP HTRF; type: cell-based; settings: 100 µM; % of control response to 1-µM acetylcholine; CHO cells
T2 construct: host or cells: CHO cells
T2 sequence (P08173 1-479): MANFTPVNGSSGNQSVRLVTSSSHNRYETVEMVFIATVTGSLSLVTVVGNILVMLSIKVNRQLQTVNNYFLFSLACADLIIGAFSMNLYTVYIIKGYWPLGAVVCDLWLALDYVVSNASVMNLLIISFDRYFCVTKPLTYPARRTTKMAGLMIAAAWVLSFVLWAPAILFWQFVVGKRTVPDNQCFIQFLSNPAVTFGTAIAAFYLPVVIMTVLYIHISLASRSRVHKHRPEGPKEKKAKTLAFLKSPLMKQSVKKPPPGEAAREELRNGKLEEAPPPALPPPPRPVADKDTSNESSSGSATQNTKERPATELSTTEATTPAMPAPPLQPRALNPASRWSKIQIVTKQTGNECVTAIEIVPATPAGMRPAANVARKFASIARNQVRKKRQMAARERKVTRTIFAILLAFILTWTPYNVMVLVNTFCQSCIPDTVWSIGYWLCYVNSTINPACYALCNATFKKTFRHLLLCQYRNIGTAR

[3] = target: T3, human M5 muscarinic acetylcholine receptor (hM5R) (Homo sapiens, UniProt P08912); assay: M5 (h) functional GPCR assay, agonist effect, intracellular Ca2+; type: cell-based; settings: 100 µM; % of control response to 624-nM acetylcholine; RBL cells
T3 construct: host or cells: RBL (rat basophilic leukemic) cells
T3 sequence (P08912 1-532): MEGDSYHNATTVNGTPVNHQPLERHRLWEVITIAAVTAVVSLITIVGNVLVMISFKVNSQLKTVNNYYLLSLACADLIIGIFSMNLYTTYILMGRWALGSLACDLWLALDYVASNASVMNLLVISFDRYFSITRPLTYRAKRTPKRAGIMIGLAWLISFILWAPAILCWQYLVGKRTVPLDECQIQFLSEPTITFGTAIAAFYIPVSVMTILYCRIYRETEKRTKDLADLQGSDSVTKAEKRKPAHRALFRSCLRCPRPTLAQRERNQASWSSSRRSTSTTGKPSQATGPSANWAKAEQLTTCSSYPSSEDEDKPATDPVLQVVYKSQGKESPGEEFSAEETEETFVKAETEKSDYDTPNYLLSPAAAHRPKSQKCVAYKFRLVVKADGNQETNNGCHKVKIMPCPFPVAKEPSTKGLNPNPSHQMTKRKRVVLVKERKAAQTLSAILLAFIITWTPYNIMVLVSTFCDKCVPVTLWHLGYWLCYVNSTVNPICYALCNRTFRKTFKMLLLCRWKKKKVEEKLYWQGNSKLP

[4] = test system: recombinant human MAO-A (hMAO-A); set-up: method as in earlier work; settings: ref 27 (Dittman et al., 2004); read-out: IC50, recombinant human MAO-A (literature); cited from earlier work

## Cc1coc2c1C(=O)C(=O)c1c-2ccc2c(C)cccc12 [Tanshinone I]
[1]; Kic
  Ki: 25.6 ± 1.1 µM
[1]; Kiu
  Ki: 17.4 ± 0.78 µM
[1]
  Inhibition Type, hMAO-B: Mixed
[1]; listed as 1
  Inhibition Type, hMAO-B: mixed mode of inhibition
[2]
  % Stimulation, M4: −23.5 ± 1.48%
[3]
  % Stimulation, M5: −1.6 ± 0.85%
[4]
  IC50: 80 µM

Source: paper PMC8301926 (Biomolecules, 2021)
